Source: patent US20260337153A1, “IONIZABLE AMINE LIPIDS” (Intellia Therapeutics, Inc., priority 2023, published 2026)

Legend:
[1] = LNP encapsulation efficiency of RNA (Ribogreen fluorescence assay); assay type: physicochemical; details: sgRNA:mRNA 1:2
Description: LNP compositions are analyzed for average particle size, polydispersity index (pdi), total RNA content, encapsulation efficiency of RNA, and zeta potential. LNP compositions may be further characterized by lipid analysis, AF4-MALS, NTA, and/or cryo-EM.
Encapsulation efficiency is calculated as (Total RNA−Free RNA)/Total RNA. A fluorescence-based assay (Ribogreen®, ThermoFisher Scientific) is used to determine total RNA concentration and free RNA. LNP samples are diluted appropriately with 1×TE buffer containing 0.2% Triton-X 100 to determine total RNA or 1×TE buffer to determine free RNA. Standard curves are prepared by utilizing the starting RNA solution used to make the compositions and diluted in 1×TE buffer+/−0.2% Triton-X 100. Diluted RiboGreen® dye (according to the manufacturer's instructions) is then added to each of the standards and samples and allowed to incubate for approximately 10 minutes at room temperature, in the absence of light. A SpectraMax M5 Microplate Reader (Molecular Devices) is used to read the samples with excitation, auto cutoff and emission wavelengths set to 488 nm, 515 nm, and 525 nm respectively. Total RNA and free RNA are determined from the appropriate standard curves. Alternatively, the total RNA concentration can be determined by a reverse-phase ion-pairing (RP-IP) HPLC method. Triton X-100 is used to disrupt the LNPs, releasing the RNA. The RNA is then separated from the lipid components chromatographically by RP-IP HPLC and quantified against a standard curve using UV absorbance at 260 nm.
(§1) In vivo editing efficiency for materials delivered with formulations including various amine lipid (or ionizable lipid) compounds in Experiments 1 through 14 as described in Tables 3 and 4 was assessed. Editing was measured using G000534 (SEQ ID NO: 5) which targets the rat TTR gene. Lipids described above were assessed for efficacy through in vivo editing experiments. LNPs were formulated at a 1:2 w/w ratio of sgRNA (SEQ ID NO: 5) and Cas9 mRNA (SEQ ID NO: 3). In Experiments 1 through 13, lipid components of the LNP are formulated in a molar ratio of 50% ionizable lipid, 38% cholesterol, 9% DSPC, and 3% PEG2K-DMG. In Experiment 14, lipid components of the LNP are formulated in a molar ratio of 50% ionizable lipid, 38% cholesterol, 9% DSPC, and 3% C13 Ether. The final LNPs used in different in vivo editing experiments were characterized to determine the encapsulation efficiency (% E), polydispersity index (PDI), and average particle size (Z-avg and number mean) according to the analytical methods provided above. The pKa values of each of the following ionizable lipids were also measured to be in the range of about 5.8 to about 7.6.
In vivo editing efficiency for materials delivered with formulations including various combinations of amine lipid (or ionizable lipid) and PEG lipid compounds was assessed as described in Tables 5 and 6. Editing was measured using G000534 (SEQ ID NO: 5) which targets the rat TTR gene. Lipids described above were assessed for efficacy through in vivo editing experiments. LNPs were formulated at a 1:2 w/w ratio of sgRNA (SEQ ID NO: 5) and Cas9 mRNA (SEQ ID NO:3). Lipid components of the LNP are formulated in a molar ratio of 50% ionizable lipid, 38% cholesterol, 9% DSPC, and 3% of various PEG lipids (e.g., PEG2K-DMG, C13 Ether, C14 Ether). The final LNPs used in different in vivo editing experiments were characterized to determine the encapsulation efficiency (% E), polydispersity index (PDI), and average particle size (Z-avg and number mean) according to the analytical methods provided above. The pKa values of each of the following ionizable lipids were also measured to be in the range of about 5.8 to about 7.6.
In vivo editing efficiency for materials delivered with formulations including various amine lipid (or ionizable lipid) compounds as described in Tables 7 and 8 was assessed. […]

[2] = test system: rat TTR; assay: Serum TTR level after LNP delivery (Rat Prealbumin (Transthyretin) ELISA); assay type: in vivo, rat (Sprague-Dawley); details: LNP with PEG2K-DMG
Description: Sprague-Dawley female rats, ranging from 6-10 weeks of age were used in each study. Animals were weighed and dosed based on individual body weight measured the morning of dosing. LNPs were dosed via the lateral tail vein in a volume of 2 mL per kilogram of animal body weight. The animals were periodically observed for adverse effects for at least 24 hours post dose.
For studies measuring in vivo editing in liver, Sprague-Dawley female rats were dosed at 0.1 mpk or 0.03 mpk, unless otherwise noted. Animals were euthanized at 6 or 7 days by carbon dioxide asphyxiation and a heart clip or by ex sanguination via cardiac puncture under isoflourane anesthesia. Blood was collected into serum separator tubes. Liver tissue was collected. Genomic DNA was isolated from the liver tissue for editing measurement by Next-Generation Sequencing (NGS).
Blood was collected and the serum was isolated as indicated. The total rat TTR serum levels were determined using a Rat Prealbumin (Transthyretin) ELISA Kit (Aviva Systems Biology, Cat. #OKIA00159). Briefly, sera were serial diluted with kit sample diluent to a final dilution of 10,000-fold. This diluted sample was then added to the ELISA plates and the assay was then carried out according to manufacturer's protocol.
as §1
TSS was used as a vehicle-only negative control. The data are illustrated in FIGS. 1A through 14.

[3] = Table 3, Experiments 1-13, LNP 50% ionizable lipid, 38% cholesterol, 9% DSPC, 3% PEG2K-DMG
[4] = LNP with 50% ionizable lipid, 38% cholesterol, 9% DSPC, 3% C13 Ether (LNP #1, Compound 53: 3% PEG2K-DMG instead)

CCCCCCCCC(CCCCCCCC)OC(=O)CCCC(=O)OCC(COC(=O)CCCC(=O)OC(CCCCCCCC)CCCCCCCC)COC(=O)OCCCN(CC)CC [Compound 2, O,O′-(2-((((3-(diethylamino)propoxy)carbonyl)oxy)methyl)propane-1,3-diyl) di(heptadecan-9-yl) diglutarate]
% E (encapsulation efficiency) ([1]; Table 3, Experiment 14, LNP with 3% C13 Ether): 99%
% E (encapsulation efficiency) [1, 3]: 98%
% TSS (serum TTR relative to vehicle) ([2]; Experiment 2, 0.1 mpk): 17%
Serum TTR ([2]; Experiment 2, 0.1 mpk): 238.5 µg/mL

CCCCCCCCC(CCCCCCCC)OC(=O)CCCCCC(=O)OCC(COC(=O)CCCCCC(=O)OC(CCCCCCCC)CCCCCCCC)COC(=O)OCCCN(CC)CC [Compound 3, O′1,O1-(2-((((3-(diethylamino)propoxy)carbonyl)oxy)methyl)propane-1,3-diyl) 7,7′-di(heptadecan-9-yl) di(heptanedioate)]
% E (encapsulation efficiency) [1, 3]: 96%
% TSS (serum TTR relative to vehicle) ([2]; Experiment 2, 0.1 mpk): 30%
Serum TTR ([2]; Experiment 2, 0.1 mpk): 414.5 µg/mL

CCCCC/C=C\C/C=C\CCCCCCCC(=O)OCC(COC(=O)CCCCCC(=O)OCC(CCCC)CCCCCC)COC(=O)OCCCN(CC)CC (stereo not drawn) [Compound 4, 1-(2-butyloctyl) 7-(3-(((3-(diethylamino)propoxy)carbonyl)oxy)-2-((((9Z,12Z)-octadeca-9,12-dienoyl)oxy)methyl)propyl) heptanedioate]
% E (encapsulation efficiency) [1, 3]: 99%
% TSS (serum TTR relative to vehicle) ([2]; Experiment 2, 0.1 mpk): 46%
Serum TTR ([2]; Experiment 2, 0.1 mpk): 647.4 µg/mL

CCCCCCC(CCCC)COC(=O)CCCCCC(=O)OCC(COC(=O)CCCCCC(=O)OCC(CCCC)CCCCCC)COC(=O)OCCCN(CC)CC (stereo not drawn) [Compound 5, 7,7′-bis(2-butyloctyl) O′1,O1-(2-((((3-(diethylamino)propoxy)carbonyl)oxy)methyl)propane-1,3-diyl) di(heptanedioate)]
% E (encapsulation efficiency) [1, 3]: 97%
% TSS (serum TTR relative to vehicle) ([2]; Experiment 2, 0.1 mpk): 25%
Serum TTR ([2]; Experiment 2, 0.1 mpk): 346.5 µg/mL

CCCCC/C=C\C/C=C\CCCCCCCC(=O)OCC(CCCCCCCCC(=O)OC(CCCCCCCC)CCCCCCCCC)COC(=O)CCC(CCCCCCCC)OC(=O)NCCN(C)CC (stereo not drawn) [Compound 24, 3-methyl-15-(9-(octadecan-9-yloxy)-9-oxononyl)-9-octyl-7,12-dioxo-8,13-dioxa-3,6-diazahexadecan-16-yl (9Z,12Z)-octadeca-9,12-dienoate]
% E (encapsulation efficiency) [1, 3]: 98%
% TSS (serum TTR relative to vehicle) ([2]; Experiment 5, 0.1 mpk): 95%
Serum TTR ([2]; Experiment 5, 0.1 mpk): 1352.4 µg/mL

CCCCC/C=C\C/C=C\CCCCCCCC(=O)OCC(CCCCCCCCC(=O)OC(CCCCCCCC)CCCCCCCCC)COC(=O)CCC(CCCCCCCC)OC(=O)NCCN1CCCC1 (stereo not drawn) [Compound 25, 11-(octadecan-9-yloxy)-11-oxo-2-(((4-(((2-(pyrrolidin-1-yl)ethyl)carbamoyl)oxy)dodecanoyl)oxy)methyl)undecyl (9Z,12Z)-octadeca-9,12-dienoate]
% E (encapsulation efficiency) [1, 3]: 98%
% TSS (serum TTR relative to vehicle) ([2]; Experiment 5, 0.1 mpk): 70%
Serum TTR ([2]; Experiment 5, 0.1 mpk): 998.3 µg/mL

CCCCC/C=C\C/C=C\CCCCCCCC(=O)OCC(CCCCCCCCC(=O)OC(CCCCCCCC)CCCCCCCCC)COC(=O)CCC(CCCC)OC(=O)NCCN(C)CC (stereo not drawn) [Compound 26, 9-butyl-3-methyl-15-(9-(octadecan-9-yloxy)-9-oxononyl)-7,12-dioxo-8,13-dioxa-3,6-diazahexadecan-16-yl (9Z,12Z)-octadeca-9,12-dienoate]
% E (encapsulation efficiency) [1, 3]: 98%
% TSS (serum TTR relative to vehicle) ([2]; Experiment 5, 0.1 mpk): 35%
Serum TTR ([2]; Experiment 5, 0.1 mpk): 502.9 µg/mL

CCCCC/C=C\C/C=C\CCCCCCCC(=O)OCC(CCCCCCCCC(=O)OC(CCCCCCCC)CCCCCCCCC)COC(=O)CCC(CCCC)OC(=O)NCCN1CCCC1 (stereo not drawn) [Compound 27, 11-(octadecan-9-yloxy)-11-oxo-2-(((4-(((2-(pyrrolidin-1-yl)ethyl)carbamoyl)oxy)octanoyl)oxy)methyl)undecyl (9Z,12Z)-octadeca-9,12-dienoate]
% E (encapsulation efficiency) [1, 3]: 98%
% TSS (serum TTR relative to vehicle) ([2]; Experiment 5, 0.1 mpk): 21%
Serum TTR ([2]; Experiment 5, 0.1 mpk): 294.3 µg/mL

CCCCCCCCC(CCCCCCCC)OC(=O)CCCCCC(=O)OCC(COC(=O)CCCCCC(=O)OC(CCCCCCCC)CCCCCCCC)COC(=O)OCCCN1CCCC1 [Compound 64, 7,7′-di(heptadecan-9-yl) O′1,O1-(2-((((3-(pyrrolidin-1-yl)propoxy)carbonyl)oxy)methyl)propane-1,3-diyl) di(heptanedioate)]
% E (encapsulation efficiency) [1, 4]: 99%

CCCCCCCCC(CCCCCCCC)OC(=O)CCCCCCC(=O)OCC(COC(=O)CCCCCCC(=O)OC(CCCCCCCC)CCCCCCCC)COC(=O)OCCCN1CCCC1 [Compound 65, 8,8′-di(heptadecan-9-yl) O′1,O1-(2-((((3-(pyrrolidin-1-yl)propoxy)carbonyl)oxy)methyl)propane-1,3-diyl) di(octanedioate)]
% E (encapsulation efficiency) [1, 4]: 99%

CCCCCCCCC(CCCCCCCC)OC(=O)CCCCCCC(=O)OCC(CC)(COC(=O)CCCCCCC(=O)OC(CCCCCCCC)CCCCCCCC)COC(=O)NCCN(CC)CC [Compound 66, O′1,O1-(2-((((2-(diethylamino)ethyl)carbamoyl)oxy)methyl)-2-ethylpropane-1,3-diyl) 8,8′-di(heptadecan-9-yl) di(octanedioate)]
% E (encapsulation efficiency) [1, 4]: 99%

CCCCCCCCC(CCCCCCCC)OC(=O)CCCCCCC(=O)OCC(CC)(COC(=O)CCCCCCC(=O)OC(CCCCCCCC)CCCCCCCC)COC(=O)OCCCN1CCCC1 [Compound 67, O′1,O1-(2-ethyl-2-((((3-(pyrrolidin-1-yl)propoxy)carbonyl)oxy)methyl)propane-1,3-diyl) 8,8′-di(heptadecan-9-yl) di(octanedioate)]
% E (encapsulation efficiency) [1, 4]: 99%

CCCCCCCCC(CCCCCCCC)OC(=O)CCCCC(=O)OCC(COC(=O)CCCCC(=O)OC(CCCCCCCC)CCCCCCCC)COC(=O)NCCN(CC)CC [Compound 68, O,O′-(2-((((2-(diethylamino)ethyl)carbamoyl)oxy)methyl)propane-1,3-diyl) di(heptadecan-9-yl) diadipate]
% E (encapsulation efficiency) [1, 4]: 99%
